{"source": "patent US9961897B2", "about": "“Fungicidal pyrazoles” (E. I. DU PONT DE NEMOURS AND COMPANY, priority 2013, dated 2018)", "assay_type_in_all_cases": "in vivo", "key": {"Botrytis cinerea": {"system": "Botrytis cinerea", "assay": "Test C: tomato Botrytis, preventive spray on tomato seedlings, visual disease rating", "conditions": "100 = 100% disease control, 0 = no control", "text": "(§1) General protocol for preparing test suspensions for Tests A-E: the test compounds were first dissolved in acetone in an amount equal to 3% of the final volume and then suspended at the desired concentration (in ppm) in acetone and purified water (50/50 mix by volume) containing 250 ppm of the surfactant Trem® 014 (polyhydric alcohol esters). The resulting test suspensions were then used in Tests A-E. Spraying a 200 ppm test suspension to the point of run-off on the test plants was the equivalent of a rate of 800 g/ha.\nThe test suspension was sprayed to the point of run-off on tomato seedlings. The following day the seedlings were inoculated with a spore suspension of Botrytis cinerea (the causal agent of tomato Botrytis) and incubated in a saturated atmosphere at 20° C. for 48 h, and then moved to a growth chamber at 24° C. for 3 days, after which time visual disease ratings were made.\n(§2) Results for Tests A-E are given in Table A. In the Table, a rating of 100 indicates 100% disease control and a rating of 0 indicates no disease control (relative to the controls). All results are for compounds tested at 200 ppm except where followed by an asterisk “*” which indicates the compound was tested at 250 ppm. A dash (-) indicates no test results."}, "[1]": {"system": "Blumeria graminis f. sp. tritici", "assay": "Test D: wheat powdery mildew, preventive spray on wheat seedlings, visual disease rating", "conditions": "100 = 100% disease control, 0 = no control", "text": "as §1\nThe test suspension was sprayed to the point of run-off on wheat seedlings. The following day the seedlings were inoculated with a spore dust of Blumeria graminis f. sp. tritici, also known as Erysiphe graminis f. sp. tritici (the causal agent of wheat powdery mildew) and incubated in a growth chamber at 20° C. for 8 days, after which time visual disease ratings were made.\nas §2"}, "[2]": {"system": "Puccinia recondita f. sp. tritici", "assay": "Test A: wheat leaf rust, preventive spray on wheat seedlings, visual disease rating", "conditions": "100 = 100% disease control, 0 = no control", "text": "as §1\nThe test suspension was sprayed to the point of run-off on wheat seedlings. The following day the seedlings were inoculated with a spore suspension of Puccinia recondita f. sp. tritici (the causal agent of wheat leaf rust) and incubated in a saturated atmosphere at 20° C. for 24 h, and then moved to a growth chamber at 20° C. for 6 days, after which time visual disease ratings were made.\nas §2"}, "Septoria nodorum": {"system": "Septoria nodorum", "assay": "Test E: Septoria glume blotch, preventive spray on wheat seedlings, visual disease rating", "conditions": "200 ppm test suspension sprayed to run-off on wheat seedlings; 100 = 100% disease control, 0 = no control", "text": "as §1\nThe test suspension was sprayed to the point of run-off on wheat seedlings. The following day the seedlings were inoculated with a spore suspension of Septoria nodorum (the causal agent of Septoria glume blotch) and incubated in a saturated atmosphere at 24° C. for 48 h, and then moved to a growth chamber at 20° C. for 9 days, after which time visual disease ratings were made.\nas §2"}, "Septoria tritici": {"system": "Septoria tritici", "assay": "Test B: wheat leaf blotch, preventive spray on wheat seedlings, visual disease rating", "conditions": "100 = 100% disease control, 0 = no control", "text": "as §1\nThe test suspension was sprayed to the point of run-off on wheat seedlings. The following day the seedlings were inoculated with a spore suspension of Septoria tritici (the causal agent of wheat leaf blotch) and incubated in a saturated atmosphere at 24° C. for 48 h, and then moved to a growth chamber at 20° C. for 19 days, after which time visual disease ratings were made.\nas §2"}, "[3]": {"conditions": "200 ppm test suspension sprayed to run-off on tomato seedlings"}, "[4]": {"conditions": "200 ppm test suspension sprayed to run-off on wheat seedlings"}, "[5]": {"conditions": "250 ppm (asterisk) test suspension sprayed to run-off on wheat seedlings"}, "[6]": {"conditions": "250 ppm (asterisk) test suspension sprayed to run-off on tomato seedlings"}}, "note": "Marks after values point to notes of the source that are not given here."}
{"smiles": "Cc1nn(C)c(-c2c(F)cc(/C=C/C3CC3)cc2F)c1C(O)c1ccc(F)cc1Cl", "note": "(stereo not drawn) [Compound 1]", "values": [{"measurement": "Test C disease control rating", "setting": "Botrytis cinerea; [3]", "value": 0, "unit": "%"}, {"measurement": "Test D disease control rating", "setting": "[1]; [4]", "value": 98, "unit": "%"}, {"measurement": "Test A disease control rating", "setting": "[2]; [4]", "value": 68, "unit": "%"}, {"measurement": "Test E disease control rating", "setting": "Septoria nodorum", "value": 0, "unit": "%"}]}
{"smiles": "Cc1nn(C)c(-c2c(F)cc(C#CC3CC3)cc2F)c1C(O)c1ccc(F)cc1Cl", "note": "(stereo not drawn) [Compound 2]", "values": [{"measurement": "Test C disease control rating", "setting": "Botrytis cinerea; [3]", "value": 98, "unit": "%"}, {"measurement": "Test D disease control rating", "setting": "[1]; [4]", "value": 98, "unit": "%"}, {"measurement": "Test A disease control rating", "setting": "[2]; [4]", "value": 95, "unit": "%"}, {"measurement": "Test E disease control rating", "setting": "Septoria nodorum", "value": 100, "unit": "%"}]}
{"smiles": "Cc1nn(C)c(-c2c(F)cc(-n3cccn3)cc2F)c1C(O)c1ccc(F)cc1Cl", "note": "(stereo not drawn) [Compound 3, α-(2-chloro-4-fluorophenyl)-5-[2,6-difluoro-4-(1H-pyrazol-1-yl)phenyl]-1,3-dimethyl-1H-pyrazole-4-methanol]", "values": [{"measurement": "Test C disease control rating", "setting": "Botrytis cinerea; [3]", "value": 59, "unit": "%"}, {"measurement": "Test D disease control rating", "setting": "[1]; [4]", "value": 81, "unit": "%"}, {"measurement": "Test A disease control rating", "setting": "[2]; [4]", "value": 68, "unit": "%"}, {"measurement": "Test E disease control rating", "setting": "Septoria nodorum", "value": 98, "unit": "%"}]}
{"smiles": "Cc1nn(C)c(-c2c(F)cc(-n3ccc(C(F)(F)F)n3)cc2F)c1C(O)c1ccc(F)cc1Cl", "note": "(stereo not drawn) [Compound 4]", "values": [{"measurement": "Test C disease control rating", "setting": "Botrytis cinerea; [3]", "value": 0, "unit": "%"}, {"measurement": "Test D disease control rating", "setting": "[1]; [4]", "value": 0, "unit": "%"}, {"measurement": "Test A disease control rating", "setting": "[2]; [4]", "value": 0, "unit": "%"}, {"measurement": "Test E disease control rating", "setting": "Septoria nodorum", "value": 0, "unit": "%"}]}
{"smiles": "C#CCOc1cc(F)c(-c2c(C(O)c3ccc(F)cc3Cl)c(C)nn2C)c(F)c1", "note": "(stereo not drawn) [Compound 5]", "values": [{"measurement": "Test C disease control rating", "setting": "Botrytis cinerea; [3]", "value": 98, "unit": "%"}, {"measurement": "Test D disease control rating", "setting": "[1]; [4]", "value": 99, "unit": "%"}, {"measurement": "Test B disease control rating", "setting": "Septoria tritici; [4]", "value": 99, "unit": "%"}, {"measurement": "Test A disease control rating", "setting": "[2]; [4]", "value": 100, "unit": "%"}]}
{"smiles": "C=CCOc1cc(F)c(-c2c(C(O)c3ccc(F)cc3Cl)c(C)nn2C)c(F)c1", "note": "(stereo not drawn) [Compound 6]", "values": [{"measurement": "Test C disease control rating", "setting": "Botrytis cinerea; [3]", "value": 99, "unit": "%"}, {"measurement": "Test D disease control rating", "setting": "[1]; [4]", "value": 95, "unit": "%"}, {"measurement": "Test B disease control rating", "setting": "Septoria tritici; [4]", "value": 99, "unit": "%"}, {"measurement": "Test A disease control rating", "setting": "[2]; [4]", "value": 99, "unit": "%"}]}
{"smiles": "Cc1nn(C)c(-c2c(F)cc(C3CO3)cc2F)c1C(O)c1ccc(F)cc1Cl", "note": "(stereo not drawn) [Compound 8]", "values": [{"measurement": "Test C disease control rating", "setting": "Botrytis cinerea; [3]", "value": 30, "unit": "%"}, {"measurement": "Test D disease control rating", "setting": "[1]; [4]", "value": 27, "unit": "%"}, {"measurement": "Test B disease control rating", "setting": "Septoria tritici; [4]", "value": 95, "unit": "%"}, {"measurement": "Test A disease control rating", "setting": "[2]; [4]", "value": 90, "unit": "%"}, {"measurement": "Test E disease control rating", "setting": "Septoria nodorum", "value": 0, "unit": "%"}]}
{"smiles": "Cc1nn(C)c(-c2c(F)cc(OCCC(C)C)cc2F)c1C(O)c1ccc(F)cc1Cl", "note": "(stereo not drawn) [Compound 9, α-(2-chloro-4-fluorophenyl)-5-[2,6-difluoro-4-(3-methylbutoxy)phenyl]-1,3-dimethyl-1H-pyrazole-4-methanol]", "values": [{"measurement": "Test C disease control rating", "setting": "Botrytis cinerea; [3]", "value": 0, "unit": "%"}, {"measurement": "Test D disease control rating", "setting": "[1]; [5]", "value": "21* %"}, {"measurement": "Test B disease control rating", "setting": "Septoria tritici; [4]", "value": 87, "unit": "%"}, {"measurement": "Test A disease control rating", "setting": "[2]; [4]", "value": 9, "unit": "%"}, {"measurement": "Test E disease control rating", "setting": "Septoria nodorum", "value": 0, "unit": "%"}]}
{"smiles": "Cc1nn(C)c(-c2c(F)cc(OCC3CC3)cc2F)c1C(O)c1ccc(F)cc1Cl", "note": "(stereo not drawn) [Compound 10, α-(2-chloro-4-fluorophenyl)-5-[4-(cyclopropylmethoxy)-2,6-difluorophenyl]-1,3-dimethyl-1H-pyrazole-4-methanol]", "values": [{"measurement": "Test C disease control rating", "setting": "Botrytis cinerea; [3]", "value": 12, "unit": "%"}, {"measurement": "Test D disease control rating", "setting": "[1]; [4]", "value": 94, "unit": "%"}, {"measurement": "Test B disease control rating", "setting": "Septoria tritici; [4]", "value": 96, "unit": "%"}, {"measurement": "Test A disease control rating", "setting": "[2]; [4]", "value": 99, "unit": "%"}, {"measurement": "Test E disease control rating", "setting": "Septoria nodorum", "value": 100, "unit": "%"}]}
{"smiles": "Cc1nn(C)c(-c2c(F)cc(/C=N/O)cc2F)c1C(O)c1ccc(F)cc1Cl", "note": "(stereo not drawn) [Compound 11]", "values": [{"measurement": "Test C disease control rating", "setting": "Botrytis cinerea; [3]", "value": 15, "unit": "%"}, {"measurement": "Test D disease control rating", "setting": "[1]; [4]", "value": 69, "unit": "%"}, {"measurement": "Test B disease control rating", "setting": "Septoria tritici; [4]", "value": 98, "unit": "%"}, {"measurement": "Test A disease control rating", "setting": "[2]; [4]", "value": 86, "unit": "%"}, {"measurement": "Test E disease control rating", "setting": "Septoria nodorum", "value": 0, "unit": "%"}]}
{"smiles": "CCCCOc1cc(F)c(-c2c(C(O)c3ccc(F)cc3Cl)c(C)nn2C)c(F)c1", "note": "(stereo not drawn) [Compound 13]", "values": [{"measurement": "Test C disease control rating", "setting": "Botrytis cinerea; [3]", "value": 0, "unit": "%"}, {"measurement": "Test D disease control rating", "setting": "[1]; [4]", "value": 98, "unit": "%"}, {"measurement": "Test B disease control rating", "setting": "Septoria tritici; [4]", "value": 98, "unit": "%"}, {"measurement": "Test A disease control rating", "setting": "[2]; [4]", "value": 0, "unit": "%"}]}
{"smiles": "CO/N=C/c1cc(F)c(-c2c(C(O)c3ccc(F)cc3Cl)c(C)nn2C)c(F)c1", "note": "(stereo not drawn) [Compound 14]", "values": [{"measurement": "Test C disease control rating", "setting": "Botrytis cinerea; [3]", "value": 39, "unit": "%"}, {"measurement": "Test D disease control rating", "setting": "[1]; [4]", "value": 95, "unit": "%"}, {"measurement": "Test B disease control rating", "setting": "Septoria tritici; [4]", "value": 99, "unit": "%"}, {"measurement": "Test A disease control rating", "setting": "[2]; [4]", "value": 100, "unit": "%"}]}
{"smiles": "Cc1nn(C)c(-c2c(F)cc(OCC3CCCO3)cc2F)c1C(O)c1ccc(F)cc1Cl", "note": "(stereo not drawn) [Compound 15]", "values": [{"measurement": "Test C disease control rating", "setting": "Botrytis cinerea; [6]", "value": "98* %"}, {"measurement": "Test D disease control rating", "setting": "[1]; [5]", "value": "95* %"}, {"measurement": "Test B disease control rating", "setting": "Septoria tritici; [5]", "value": "100* %"}, {"measurement": "Test A disease control rating", "setting": "[2]; [5]", "value": "98* %"}]}
{"smiles": "Cc1nn(C)c(-c2c(F)cc(OCC3OCCO3)cc2F)c1C(O)c1ccc(F)cc1Cl", "note": "(stereo not drawn) [Compound 19]", "values": [{"measurement": "Test C disease control rating", "setting": "Botrytis cinerea; [6]", "value": "100* %"}, {"measurement": "Test D disease control rating", "setting": "[1]; [5]", "value": "95* %"}, {"measurement": "Test B disease control rating", "setting": "Septoria tritici; [5]", "value": "99* %"}, {"measurement": "Test A disease control rating", "setting": "[2]; [5]", "value": "100* %"}]}
